The values below come from patent US20130149721A1, “Methods for Inhibiting Amyloid Precursor Protein and Beta-Amyloid Production and Accumulation” (WISCONSIN ALUMNI RESEARCH FOUNDATION, priority 2008, published 2013).

Assay [1] concerns APP levels in WT and Fmr-1 KO SN. In words: Western blot of steady-state APP levels in synaptoneurosomes. The format is cell-based, mouse. Here is the method:
FIG. 3 is a result from western blot analysis illustrating differential regulation of APP levels in WT and KO SN. Western blots of WT (top panel) and KO (bottom panel) SN treated in the presence or absence of DHPG (at 5, 10 and 20 min of incubation) were probed with anti-APP and anti-β-actin (control) antibodies.
Western blot analysis. Aliquots of SNs were collected at 5, 10, and 20 min after DHPG treatment, quenched with an equal volume of 2×SDS sample buffer (8% SDS, 24% glycerol, 100 mM Tris (pH 6.8), 4% β-mercaptoethanol, 0.02% bromophenol blue, 2% Triton X-100, 2% deoxycholate, 2% NP-40 alternative, and 2% sarkosyl) and boiled for 5 min prior to analysis by 12% SDS-PAGE. The separated proteins were transferred to a 0.45 μm nitrocellulose membrane in Towbin buffer containing 20% methanol with a Criterion Blotter (Bio-Rad, http://www.bio-rad.com; 100 V, 4° C., 75 min). The membranes were blocked in 5% nonfat dry milk and hybridized with anti-rabbit APP antibody (dilution, 1 μg/ml) and anti-mouse β-actin antibody (dilution, 1:20,000) followed by hybridization with anti-rabbit or anti-mouse HRP-conjugated secondary antibodies (dilution, 1:2000). […]
In order to assess changes in steady-state APP levels, rather than new protein synthesis, APP was measured in WT and Fmr-1 KO SN in response to DHPG by western blot analysis (FIG. 3). […]
For orientation: In western blotting, separated proteins are transferred to a membrane and probed.

Assay [2] deals with FMRP-associated APP mRNA in WT SN. In words: FMRP immunoprecipitation and RTqPCR of associated APP mRNA in synaptoneurosomes. The format is cell-based, mouse. The method, then: SNs were prepared from WT and Fmr-1 KO mouse cortical tissue (Dunkley et al., 1988, Brain Res 441: 59-71; Bagni et al., 2000, J Neuorsci 20: RC76). Briefly, mouse pups aged 14-17 d were killed by carbon dioxide asphyxiation followed by removal of the brain cortices. The cortices were washed in ice-cold gradient medium (GM buffer: 0.25 M sucrose, 5 mM Tris (pH 7.5), and 0.1 mM EDTA), transferred to a glass dounce homogenizer containing ice-cold GM buffer, and gently homogenized with five strokes of the loose pestle followed by five strokes of the tight pestle. The homogenate was spun at 1000 g for 10 min at 4° C. in round-bottom tubes to pellet cellular debris and nuclei. […] The protein concentration of the SNs was determined by Bradford assay and ranged from 200-500 ng/μl. […]
SN lysates were precleared with protein A magnetic beads and immunoprecipitated with 10 μl RNasin, 10 μg 7G1-1 antiFMRP antibody (or in the absence of antibody as a control), and 100 μl packed fresh protein A magnetic beads for 3 h at 4° C. […] The final pellet was suspended in DEPC-treated water, solubilized 10 min at 60° C., and reverse transcribed with Qiagen Omniscript and random nonamer primer (60 min at 37° C., 5 min at 93° C.). cDNA produced in this reaction was diluted 5-fold and analyzed for APP by qPCR as described immediately above. […]
Background: Quantitative PCR measures a nucleic acid by following its amplification.

Where only a bound is given, the exact number is not on record here.

For `N[C@@H](C(=O)O)c1cc(O)cc(O)c1` (racemic) [DHPG, (R,S)-3,5-dihydroxyphenylglycine], the “increase in total APP levels” value in assay [1] (Fmr-1 KO SN, DHPG) is reported as “completely absent”; in assay [1] (WT SN, within 5 min of DHPG, n=3), 1.6 fold. The “time to loss of APP mRNA-FMRP complex” value in assay [2] (WT SN contacted with DHPG) is at most 5 min. Moreover, in assay [2] (WT SN, untreated vs 100 μM DHPG, 60 min), the “difference in FMRP-associated APP mRNA” value is reported as above 60 fold.
